Common to all, as to test: NCI tumour cell line growth inhibition, 48 h
Assay [1] relates to CCRF-CEM.
Assay [2] concerns SNB-75.
For assay [3], the system named is KM12.
Assay [4] deals with 786-0.
Assay [5] has as its system TK-10.
Assay [6] relates to NCI-H522.
The test system of assay [7] is OVCAR-5.
In assay [8] the test system is EKVX.
For assay [9], the system named is HCT-15.
Assay [10] relates to PC-3.
Assay [11] relates to HOP-62.
For assay [12], the system named is HT-29.
The subject of assay [13] is MCF7.
In assay [14] the test system is HOP-92.
For assay [15], the system named is OVCAR-4.
The subject of assay [16] is MDA-MB-435.
In assay [17] the test system is SNB-19.
Assay [18] has as its system SF-539.
Assay [19] deals with BT-549.
The subject of assay [20] is SK-OV-3.

Each structure is given as a SMILES string. “And” between values parts separate entries of the source, which are not always exact repeats. Equal entries are not always repeated.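 Five concentrations, 48 hours, 96-well plates. GI50 is the concentration that inhibits growth by half.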 The source made the active and inactive calls. Cut-off read from the data, not from the text of the source: active = GI50 up to about 1.1 µM and inactive = higher. Some results are limits rather than exact numbers.

Regarding `COc1cc(C2c3cc4c(cc3OC(NNS(=O)(=O)c3ccc(C)cc3)C2C)OCO4)cc(OC)c1OC` (stereo not given), the GI50 is 1.01 µM (active) in [1]; 3.02 µM (inactive) in [2]; 1.26 µM (inactive) in [3]; 7.76 µM (inactive) in [4]; 6.7 µM (inactive) in [5]; 1.25 µM (inactive) in [6]. For the same compound, the GI50 in [7] is 9.14 µM (inactive); in assay [8] it was 2.05 µM (inactive); in [9], 1.29 µM; in assay [10], 1.28 µM (inactive); in assay [11] it was 0.817 µM (active); in [12] it was 1.34 µM (inactive). The GI50 in assay [13] is 1.48 µM (inactive); in assay [14], 2 µM (inactive); in assay [15], 7.59 µM (inactive); in [16] it was 0.294 µM (active); in assay [17], 3.58 µM (inactive); in [18] it was 0.984 µM (active). In addition, the GI50 was 3.32 µM (inactive) in assay [19] and 4.13 µM (inactive) in [20].
Consider `CSc1nc2ccccc2c(=O)n1/N=C1\C(=O)N(CN2CCCCC2)c2ccc(Cl)cc21`, for which the GI50 in assay [1] is 20.6 µM (inactive); in assay [2], 19.7 µM (inactive); in assay [3], 25.1 µM (inactive); in assay [4], 22.3 µM (inactive); in assay [5], 26.4 µM (inactive); in assay [6], 12.2 µM (inactive). In addition, the GI50 was 64.6 µM (inactive) in [7]; 14.1 µM (inactive) in assay [8]; 13.3 µM in [9]; 29.4 µM (inactive) in assay [10]; 33.3 µM (inactive) in assay [11]; 36.7 µM (inactive) in assay [12]. Besides, the GI50 in assay [13] was 18.7 µM (inactive); in assay [14], 32.9 µM (inactive); in assay [15] it was 30.2 µM (inactive); in assay [16], 26.6 µM (inactive); in [17], 61.5 µM (inactive); in assay [18] it was 37.6 µM (inactive). The GI50 is 15 µM (inactive) in assay [19] and 27.4 µM (inactive) in assay [20].
On to `C=CCCCCNC(=O)C[C@@H]1C2=C(CC[C@H]1O[Si](C)(C)C(C)(C)C)N1C(=O)CCC/C=C\C1C2` (stereo not given in full), for which the GI50 in assay [1] is 10.6 µM (inactive); in assay [2], 16.4 µM (inactive); in assay [3], 15 µM (inactive); in [4], 15.4 µM (inactive); in assay [5], 16.1 µM (inactive); in assay [6] it was 11.7 µM (inactive). Besides, the GI50 in assay [7] is 16 µM (inactive); in assay [8], 17.3 µM (inactive); in assay [9], 14 µM; in assay [10], 12 µM (inactive); in [11], 17.9 µM (inactive); in assay [12], 12.3 µM (inactive). Also, the GI50 in assay [13] was 12.2 µM (inactive); in assay [14], 11 µM (inactive); in assay [15], 12.2 µM (inactive); in assay [16], 14.6 µM (inactive); in [17], 14.4 µM (inactive); in assay [18] it was 17.5 µM (inactive). Moreover, the GI50 in assay [19] and in assay [20] was 16.6 µM (inactive) throughout.
As to `CN/N=C(/CCN1CCCC1)CC(c1ccccc1)c1c(O)c2ccccc2oc1=O` (stereo not given), the GI50 is > 71.9 µM (inactive) in assay [1]; 19.4 µM (inactive) in [2]; > 100 µM (inactive) in [3]; > 100 µM (inactive) in assay [4]; > 100 µM (inactive) in assay [5]; > 100 µM (inactive) in assay [6]. Besides, the GI50 in assay [7] was > 100 µM (inactive); in [8], > 100 µM (inactive); in assay [9] it was above 100 µM; in [10], > 100 µM (inactive); in assay [11], > 100 µM (inactive); in [12] it was > 100 µM (inactive). The GI50 in assay [13] was > 100 µM (inactive); in assay [14], 0.804 µM (active); in assay [15], > 100 µM (inactive); in [16] it was > 100 µM (inactive); in assay [17], > 100 µM (inactive); in assay [18] it was > 100 µM (inactive). The GI50 in [19] and in assay [20] was > 100 µM (inactive) each time.
For `CN(CCc1ccc(Cl)c(Cl)c1)CCN(C)CCN1CCCC1`, the GI50 in assay [1] was 3.72 µM (inactive); in assay [2] it was 14.9 µM (inactive); in assay [3] it was 10.9 µM (inactive); in assay [4], 8.99 µM (inactive); in [5], 13.3 µM (inactive); in [6] it was 6.64 µM (inactive). The GI50 in assay [7] was 18.6 µM (inactive); in [8], 16.6 µM (inactive); in assay [9], 14.5 µM; in assay [10], 14.5 µM (inactive); in assay [11], 15.1 µM (inactive); in assay [12] it was 2.38 µM (inactive). Moreover, the GI50 in [13] was 12.1 µM (inactive); in assay [14] it was 3.66 µM (inactive); in assay [15], 28.5 µM (inactive); in [16], 2.02 µM (inactive); in [17] it was 17.4 µM (inactive); in assay [18] it was 4.08 µM (inactive). Further, the GI50 was 16.7 µM (inactive) in assay [19] and 21.2 µM (inactive) in [20].
Consider `NC(=O)c1ncn2c(=O)n(CCCl)nnc12` [MITOZOLOMIDE], for which the GI50 was 32.9 µM (inactive) in assay [1]; 50 µM (inactive) in assay [2]; 180 µM (inactive) in [3]; 28.8 µM (inactive) in assay [4]; 229 µM (inactive) in assay [5]; 131 µM (inactive) in assay [6]. Also, the GI50 in [7] is 225 µM (inactive); in assay [8], 197 µM (inactive); in assay [9] it was 175 µM; in assay [10], 177 µM (inactive); in assay [11] it was 29.5 µM (inactive); in assay [12], 156 µM (inactive). Further, the GI50 was 120 µM (inactive) in assay [13]; 136 µM (inactive) in assay [14]; 187 µM (inactive) in assay [15]; 170 µM (inactive) in assay [16]; 93.5 µM (inactive) in assay [17]; 31 µM (inactive) in assay [18]. Moreover, the GI50 was 83.2 µM (inactive) in assay [19] and 52.6 µM (inactive) in [20].
In the case of `C=CC(Br)(CBr)CCC(Br)C(C)C` (stereo not given), the GI50 in [1] was 0.822 µM (active); in assay [2], 1.95 µM (inactive); in assay [3], 2.18 µM (inactive); in assay [4], 1.58 µM (inactive); in [5], 3.13 µM (inactive); in assay [6], 1.49 µM (inactive). The GI50 in assay [7] was 15.6 µM (inactive); in assay [8] it was 18.3 µM (inactive); in [9], 4.66 µM; in assay [10], 7 µM (inactive); in assay [11] it was 3.18 µM (inactive); in [12] it was 2.79 µM (inactive). For the same compound, the GI50 in [13] is 1.82 µM (inactive); in assay [14], 10.7 µM (inactive); in assay [15], 4.9 µM (inactive); in [16] it was 5.21 µM (inactive); in assay [17], 9.84 µM (inactive); in assay [18], 2.66 µM (inactive). Moreover, the GI50 is 3.14 µM (inactive) in assay [19] and 16.6 µM (inactive) in assay [20].
Take `O=C1N/C(=N/N=C\C(O)C(O)C(O)C(O)CO)N/C1=C/c1ccc(Cl)cc1` (stereo not given): the GI50 was 40.4 µM (inactive) in assay [1]; > 100 µM (inactive) in [2]; > 100 µM (inactive) in assay [3]; > 100 µM (inactive) in assay [4]; > 100 µM (inactive) in assay [5]; 55.6 µM (inactive) and 58.1 µM (inactive) in assay [6]. The GI50 in assay [7] was > 100 µM (inactive); in assay [8], > 100 µM (inactive) and 84.5 µM (inactive); in assay [9], 76 µM and 50.6 µM; in assay [10], > 100 µM (inactive); in assay [11], > 100 µM (inactive); in assay [12], > 100 µM (inactive). The GI50 was > 100 µM (inactive) in assay [13]; > 100 µM (inactive) in assay [14]; 37.2 µM (inactive) and 17.7 µM (inactive) in [15]; > 100 µM (inactive) in assay [16]; > 100 µM (inactive) in assay [17]; > 100 µM (inactive) in assay [18]. Further, the GI50 in assay [19] and in assay [20] was > 100 µM (inactive) each time.
Regarding `Brc1c2c(c(Br)c3nsnc13)N=S=N2`, the GI50 in [1] is 2.65 µM (inactive); in [2], 25.1 µM (inactive); in [3], 46.3 µM (inactive); in assay [4] it was 15.6 µM (inactive); in assay [5] it was 17.4 µM (inactive); in assay [6], 23.4 µM (inactive). Further, the GI50 in assay [7] is 27.6 µM (inactive); in assay [8] it was 27.2 µM (inactive); in [9], 24.6 µM; in assay [10] it was 32.7 µM (inactive); in [11], 3.48 µM (inactive); in [12] it was 34.4 µM (inactive). The GI50 in assay [13] was 24.2 µM (inactive); in assay [14] it was 17.4 µM (inactive); in assay [15], 23.1 µM (inactive); in assay [16] it was 29.7 µM (inactive); in assay [17], 26.1 µM (inactive); in assay [18] it was 22.7 µM (inactive). In addition, the GI50 in [19] was 12.3 µM (inactive); in assay [20], 46.2 µM (inactive).
`O=C(Cc1ccc(Cl)c(Cl)c1)NCCCN1CCN(CCCN2CCCCC2)CC1`: the GI50 was 16 µM (inactive) in assay [1]; 19.5 µM (inactive) in assay [2]; 15.8 µM (inactive) in assay [3]; 16.4 µM (inactive) in assay [4]; 17.2 µM (inactive) in assay [5]; 15.7 µM (inactive) in [6]. In addition, the GI50 was 20 µM (inactive) in assay [7]; 19.2 µM (inactive) in assay [8]; 20.7 µM in assay [9]; 18.5 µM (inactive) in [10]; 17 µM (inactive) in assay [11]; 10.8 µM (inactive) in [12]. The GI50 in assay [13] is 18.5 µM (inactive); in assay [14], 11.1 µM (inactive); in assay [15], 37.8 µM (inactive); in assay [16], 1.9 µM (inactive); in assay [17] it was 26.9 µM (inactive); in [18], 14.2 µM (inactive). Further, the GI50 is 21.9 µM (inactive) in assay [19] and 19.2 µM (inactive) in [20].

The values are drawn from ChEMBL document CHEMBL1201862, “PubChem BioAssay data set” (2004).
